Measured values from patent publication US9808530B2, “Composition of tiacumicin compounds” (Astellas Pharma Europe Ltd., priority 2013, dated 2017).

Key:
[1] = Foaming property of fidaxomicin suspensions in water (tube shaken, foaming checked); format: physicochemical; settings: 400 mg fidaxomicin in 10 mL distilled water; immediately after preparation and 1 hour after preparation
Description: To 400 mg of fidaxomicin was added 10 mL of distilled water in a tube. The mixture was shaken and allowed to stand.
Hydroxypropylcellulose (HPC-L (middle viscosity grade) and HPC-SSL (low viscosity grade) respectively), in a concentration of 0.3 and 0.6 w/v % respectively, was added to 5 mL of distilled water in a tube which contained 0 and 200 mg respectively of fidaxomicin. Each mixture was shaken and allowed to stand.
Xanthan gum in a concentration of 0.2% w/v was added to 5 mL of distilled water in a tube, which contained 0 and 200 mg respectively of fidaxomicin. Each mixture was shaken and allowed to stand.
An amount of the granulate corresponding to 200 mg fidaxomicin was weighed into a tube and 5 ml, of water was added. The tube was vigorously shaken for about 1 min. Foaming of the suspension was not observed.
An amount of each of the granulates OS-5-OS-9, corresponding to 200 mg fidaxomicin, was weighed into a tube and 5 mL of water was added. Further, suspensions OS-10 and OS-11 were prepared by addition of 2.5 mg and 5.0 mg respectively of xanthan gum to a suspension with composition OS-5. Each tube was vigorously shaken for about 1 min. In none of the suspensions foaming was observed.
Each of the granulate compositions OS-1, OS-2 and OS-3 was weighed into a tube, water was added and the tubes were vigorously shaken for about 1 minute. […]

[2] = Storage stability of fidaxomicin with a sugar in a ratio of 1:9; format: physicochemical; settings: glass bottle
Description: Fidaxomicin and a sugar, selected from the group consisting of D-mannitol, erythritol, isomalt and trehalose, in a ratio of 1:9, were transferred into a glass bottle and stored at 5° C. during 10 days, 70° C. during 9 days and 40° C./75% RH during 1 month, respectively. In the presence of each sugar the degradation of fidaxomicin increased when stored at 70° C. during 9 days. […] (see Table 7).

[3] = low solubility, low permeability; cited from earlier work
[4] = oral administration; cited from earlier work

foaming property on contact with water [1]: intrinsically foaming property
Total related substances (%) ([2]; 5° C./10 days): 1.91%
Total related substances (%) ([2]; 70° C./9 days): 5.10%
Structure (SMILES): CCc1c(Cl)c(O)c(Cl)c(O)c1C(=O)O[C@H]1[C@H](O)[C@H](OC)[C@H](OC/C2=C\C=C\C[C@H](O)/C(C)=C/[C@H](CC)[C@@H](O[C@@H]3OC(C)(C)[C@@H](OC(=O)C(C)C)[C@H](O)[C@@H]3O)/C(C)=C/C(C)=C/C[C@@H]([C@@H](C)O)OC2=O)O[C@@H]1C [fidaxomicin, 3-[[[6-deoxy-4-O-(3,5-dichloro-2-ethyl-4,6-dihydroxybenzoyl)-2-O-methyl-β-D-mannopyranosyl]oxy]methyl]-12(R)-[[6-deoxy-5-C-methyl-4-O-(2-methyl-1-oxopropyl)-β-D-lyxo-hexopyranosyl]oxy]-11(S)-ethyl-8(S)-hydroxy-18(S)-(1(R)-hydroxyethyl)-9,13,15-trimethyloxacyclooctadeca-3,5,9,13,15-pentaen-2-one]
BCS class [3]: BCS Class IV
absorption from the intestinal tract [4]: poorly absorbed
